Data on 5 compounds can be found in patent US7550459B2, “Tetrahydroquinoline analogues as muscarinic agonists” (Acadia Pharmaceuticals, Inc., priority 2001, dated 2009).

Bounds are passed on as bounds.

For data set [1] the following is noted: some AChE inhibitors, such as tacrine; cited from earlier work.
For another data set, the target named is T1, M1 muscarinic receptor (Homo sapiens, UniProt P11229).
T1 construct: expressed in transfected cells
T1 sequence (P11229 1-460): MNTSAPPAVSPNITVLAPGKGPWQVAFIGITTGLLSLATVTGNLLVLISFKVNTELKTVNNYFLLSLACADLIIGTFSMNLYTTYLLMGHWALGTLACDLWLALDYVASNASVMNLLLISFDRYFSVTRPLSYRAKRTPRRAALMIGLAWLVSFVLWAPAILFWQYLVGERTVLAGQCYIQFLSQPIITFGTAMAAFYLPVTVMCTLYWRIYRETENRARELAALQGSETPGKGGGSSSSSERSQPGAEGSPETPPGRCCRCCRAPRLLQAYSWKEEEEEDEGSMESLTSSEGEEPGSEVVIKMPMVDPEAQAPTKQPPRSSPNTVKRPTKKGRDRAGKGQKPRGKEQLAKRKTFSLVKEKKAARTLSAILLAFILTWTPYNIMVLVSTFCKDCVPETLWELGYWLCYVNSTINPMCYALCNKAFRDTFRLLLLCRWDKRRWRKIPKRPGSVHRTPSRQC
The experiment in a line: Receptor Selection and Amplification (R-SAT) assay, cloned M1 receptor. The class given is cell-based. Conditions: R-SAT, cloned m1 receptor; for Emax: read-out: m1 % Efficacy; for EC50: read-out: m1 pEC50 (converted). In a few lines:
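Receptor Selection and Amplification functional assay: mammalian cells transfected with the cloned human muscarinic subtype proliferate in response to ligand, read out via a co-expressed marker. Agonist EC50 is the concentration for 50% of maximal response; for inverse agonists, 50% inhibition of basal response.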

A further data set has as its target T2, M5 muscarinic receptor (Homo sapiens, UniProt P08912).
T2 construct: expressed in transfected cells
T2 sequence (P08912 1-532): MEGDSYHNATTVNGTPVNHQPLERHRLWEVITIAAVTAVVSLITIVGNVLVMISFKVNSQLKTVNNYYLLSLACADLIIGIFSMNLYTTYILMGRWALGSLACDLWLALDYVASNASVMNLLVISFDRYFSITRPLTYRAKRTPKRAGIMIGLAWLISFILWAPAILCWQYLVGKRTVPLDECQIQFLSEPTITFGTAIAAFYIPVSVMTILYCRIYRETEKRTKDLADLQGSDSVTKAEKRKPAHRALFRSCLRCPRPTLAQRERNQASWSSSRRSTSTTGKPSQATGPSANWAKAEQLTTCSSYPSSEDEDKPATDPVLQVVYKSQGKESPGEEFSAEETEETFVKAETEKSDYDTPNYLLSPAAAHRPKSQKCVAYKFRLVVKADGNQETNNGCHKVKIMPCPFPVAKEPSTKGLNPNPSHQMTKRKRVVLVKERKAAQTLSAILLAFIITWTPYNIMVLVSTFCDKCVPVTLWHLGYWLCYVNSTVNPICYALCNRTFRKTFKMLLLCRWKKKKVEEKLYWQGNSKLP
The experiment in a line: Receptor Selection and Amplification (R-SAT) assay, cloned M5 receptor. Format: cell-based. As to conditions: for Emax: read-out: m5 % Efficacy; for EC50: read-out: m5 pEC50 (converted). The text has this:
(§1) The EC50 for an agonist is intended to denote the concentration of a compound needed to achieve 50% of a maximal response seen in an in vitro assay such as R-SAT. For inverse agonists, EC50 is intended to denote the concentration of a compound needed to achieve 50% inhibition of an R-SAT response from basal, no compound, levels.
(§2) A particularly convenient functional assay system is the receptor selection and amplification assay (R-SAT assay) in U.S. Pat. No. 5,707,798, which describes a method of screening for bioactive compounds by utilizing the ability of cells transfected with receptor DNA, e.g., coding for the different muscarinic subtypes, to amplify in the presence of a ligand of the receptor. Cell amplification is detected as increased levels of a marker also expressed by the cells.
(§3) Receptor Selection and Amplification (R-SAT) assays were carried out using the cloned M1-M5 receptors essentially as described in: Brauner-Osborne H, Brann M R. Pharmacology of muscarinic acetylcholine receptor subtypes (m1-m5): high throughput assays in mammalian cells. Eur J Pharmacol Jan. 4, 1996;295(1):93-102, and Spalding T A, Trotter C, Skjaerbaek N, Messier T L, Currier E A, Burstein E S, Li D, Hacksell U, Brann M R. Discovery of an ectopic activation site on the M(1) muscarinic receptor. Mol Pharmacol. 2002 June;61(6):1297-302.

Another data set deals with T3, M4 muscarinic receptor (Homo sapiens, UniProt P08173).
T3 construct: expressed in transfected cells
T3 sequence (P08173 1-479): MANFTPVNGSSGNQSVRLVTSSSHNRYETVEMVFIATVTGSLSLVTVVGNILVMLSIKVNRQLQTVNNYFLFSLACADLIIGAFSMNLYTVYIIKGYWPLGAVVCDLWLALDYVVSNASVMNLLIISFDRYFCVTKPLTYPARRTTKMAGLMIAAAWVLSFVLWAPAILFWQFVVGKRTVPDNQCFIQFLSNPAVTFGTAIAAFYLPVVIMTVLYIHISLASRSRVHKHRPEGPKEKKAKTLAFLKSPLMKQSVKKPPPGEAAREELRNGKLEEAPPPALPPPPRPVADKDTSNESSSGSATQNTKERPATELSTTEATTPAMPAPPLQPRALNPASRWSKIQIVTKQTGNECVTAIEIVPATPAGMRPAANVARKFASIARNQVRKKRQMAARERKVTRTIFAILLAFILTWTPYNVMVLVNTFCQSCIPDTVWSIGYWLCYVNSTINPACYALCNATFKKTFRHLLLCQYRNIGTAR
The experiment in a line: Receptor Selection and Amplification (R-SAT) assay, cloned M4 receptor. Conditions: R-SAT, cloned m4 receptor; for Emax: read-out: m4 % Efficacy; for EC50: read-out: m4 pEC50 (converted). Format: cell-based.
From the text: as §1, §2, §3

Another data set has as its target T4, M2 muscarinic receptor (Homo sapiens, UniProt P08172).
T4 construct: expressed in transfected cells
T4 sequence (P08172 1-466): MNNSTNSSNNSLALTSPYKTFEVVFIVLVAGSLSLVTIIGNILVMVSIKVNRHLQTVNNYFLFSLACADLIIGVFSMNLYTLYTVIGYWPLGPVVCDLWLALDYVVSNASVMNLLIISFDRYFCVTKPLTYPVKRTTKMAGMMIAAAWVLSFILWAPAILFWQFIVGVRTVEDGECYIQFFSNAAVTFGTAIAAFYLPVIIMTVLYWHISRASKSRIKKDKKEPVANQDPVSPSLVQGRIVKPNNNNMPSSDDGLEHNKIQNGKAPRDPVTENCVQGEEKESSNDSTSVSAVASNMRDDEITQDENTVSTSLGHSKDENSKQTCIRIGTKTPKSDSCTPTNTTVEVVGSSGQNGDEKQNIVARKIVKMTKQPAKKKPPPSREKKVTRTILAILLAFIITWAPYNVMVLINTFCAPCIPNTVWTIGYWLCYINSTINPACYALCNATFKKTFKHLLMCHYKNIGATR
The experiment in a line: Receptor Selection and Amplification (R-SAT) assay, cloned M2 receptor. Format: cell-based. As to conditions: R-SAT, cloned m2 receptor; for Emax: read-out: m2 % Efficacy; for EC50: read-out: m2 pEC50 (converted).
From the text: as §1, §2, §3

Take `Nc1c2c(nc3ccccc13)CCCC2` [tacrine]: the “patients with elevated liver transaminases (significant hepatotoxicity)” value in data set [1] is on record as “about 30%”.
Turning to `CCCCC1CCN(CCCN2CCOc3ccc(CC)cc32)CC1` [Compound 64LHY91-5, 4-[3-(4-Butyl-piperidin-1-yl)-propyl]-6-ethyl-3,4-dihydro-2H-benzo[1,4]oxazine], the values for the Emax on M1 muscarinic receptor, on M5 muscarinic receptor and on M4 muscarinic receptor were 69%, 38% and 51%, respectively. The EC50 on M1 muscarinic receptor is 158 nM; on M5 muscarinic receptor, 631 nM; on M4 muscarinic receptor, 2000 nM.
As to `CCCCC1CCN(CCCN2C(=O)COc3cc(F)ccc32)CC1` [Compound 81MF763, 4-[3-(4-Butylpiperidin-1-yl)propyl]-7-fluoro-4H-benzo[1,4]oxazin-3-one], the Emax was found to be 92% on M1 muscarinic receptor, 50% on M5 muscarinic receptor, 57% at M4 muscarinic receptor and 47% on M2 muscarinic receptor. The values for the EC50 at M5 muscarinic receptor, on M4 muscarinic receptor and at M2 muscarinic receptor were 1260 nM, 398 nM and 251 nM, respectively.
Turning to `CCCCC1CCN(CCCN2C(=O)COc3ccc(C)cc32)CC1` [Compound 64LHY89-6, 4-[3-(4-Butyl-piperidin-1-yl)-propyl]-6-methyl-4H-benzo[1,4]oxazin-3-one], the Emax was 80% on M1 muscarinic receptor, 48% on M5 muscarinic receptor, 50% on M4 muscarinic receptor and 35% on M2 muscarinic receptor. The EC50 on M1 muscarinic receptor was 39.8 nM; at M5 muscarinic receptor it was 631 nM; on M4 muscarinic receptor, 316 nM; at M2 muscarinic receptor, 631 nM.
Regarding `CCCCC1CCN(CCCN2C(=O)CCc3cc(OC)ccc32)CC1` [Compound 77LH22-A, 1-[3-(4-Butyl-piperidin-1-yl)-propyl]-6-methoxy-3,4-dihydro-1H-quinolin-2-one], the Emax was determined as 76% at M1 muscarinic receptor and 37% at M5 muscarinic receptor. Moreover, the EC50 at M1 muscarinic receptor was 79.4 nM; at M5 muscarinic receptor, more than 3160 nM.
